# Tested on: 186277-243-T-J2-PDC complex spheroid viability
# Experiment: Anticancer human tumor 186277-243-T-J2-PDC patient-derived colon adenocarcinoma cell line growth inhibition
# Settings: for IC50: curve of first compound; for viability, T/C: stronger effect = lower value
# Procedure, shortened: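 Multicellular complex spheroids of tumor cells with human endothelial cells (HUVEC) and mesenchymal stem cells; the LSD1 inhibitor iadademstat was combined with standard-of-care or investigational agents. Top concentration at or near clinical Cmax, half-log dilutions; final DMSO ≤0.25%.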
# [1] = second compound 0.1 µM, first compound 0.00949 µM
# [2] = second compound 0.1 µM, first compound 0.03 µM
# [3] = second compound 0.1 µM, first compound 0.0949 µM
# [4] = second compound 0.1 µM, first compound 0.3 µM
# [5] = second compound 0.316 µM, first compound 0.00949 µM
# [6] = second compound 0.316 µM, first compound 0.03 µM
# [7] = second compound 0.316 µM, first compound 0.0949 µM
# [8] = second compound 0.316 µM, first compound 0.3 µM
# [9] = second compound 1 µM, first compound 0.00949 µM
# [10] = second compound 1 µM, first compound 0.03 µM
# [11] = second compound 1 µM, first compound 0.0949 µM
# [12] = second compound 1 µM, first compound 0.3 µM
# [13] = second compound 3.16 µM, first compound 0.00949 µM
# [14] = second compound 3.16 µM, first compound 0.03 µM
# [15] = second compound 3.16 µM, first compound 0.0949 µM
# [16] = second compound 3.16 µM, first compound 0.3 µM
# [17] = second compound 10 µM, first compound 0.00949 µM
# [18] = second compound 10 µM, first compound 0.03 µM
# [19] = second compound 10 µM, first compound 0.0949 µM
# [20] = second compound 10 µM, first compound 0.3 µM
# 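Also: 7 day exposure to compounds.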
# 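For viability, T/C in this document: 100% = DMSO vehicle control viability.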
structure (smiles),measurement,setting,value
Nc1ccccc1NC(=O)c1ccc(CNC(=O)OCc2cccnc2)cc1 + NC1CCC(NC2CC2c2ccccc2)CC1,IC50,second compound 0.1 µM,1410 nM
same,IC50,second compound 0.316 µM,1400 nM
same,IC50,second compound 1 µM,1520 nM
same,IC50,second compound 3.16 µM,1380 nM
same,IC50,second compound 10 µM,1390 nM
same,"viability, T/C",[1],112%
same,"viability, T/C",[2],96.2%
same,"viability, T/C",[3],95.3%
same,"viability, T/C",[4],110%
same,"viability, T/C","second compound 0.1 µM, first compound 0.949 µM",69.6%
same,"viability, T/C","second compound 0.1 µM, first compound 3 µM",12.5%
same,"viability, T/C",[5],112%
same,"viability, T/C",[6],113%
same,"viability, T/C",[7],109%
same,"viability, T/C",[8],96.5%
same,"viability, T/C","second compound 0.316 µM, first compound 0.949 µM",68.7%
same,"viability, T/C","second compound 0.316 µM, first compound 3 µM",13.5%
same,"viability, T/C",[9],112%
same,"viability, T/C",[10],113%
same,"viability, T/C",[11],92.8%
same,"viability, T/C",[12],107%
same,"viability, T/C","second compound 1 µM, first compound 0.949 µM",74.9%
same,"viability, T/C","second compound 1 µM, first compound 3 µM",13.7%
same,"viability, T/C",[13],118%
same,"viability, T/C",[14],113%
same,"viability, T/C",[15],106%
same,"viability, T/C",[16],108%
same,"viability, T/C","second compound 3.16 µM, first compound 0.949 µM",67.6%
same,"viability, T/C","second compound 3.16 µM, first compound 3 µM",12.8%
same,"viability, T/C",[17],106%
same,"viability, T/C",[18],98.7%
same,"viability, T/C",[19],103%
same,"viability, T/C",[20],93.4%
same,"viability, T/C","second compound 10 µM, first compound 0.949 µM",71.1%
same,"viability, T/C","second compound 10 µM, first compound 3 µM",8.04%
Nc1ccn(C2OC(CO)C(O)C2(F)F)c(=O)n1 (stereo not given) + NC1CCC(NC2CC2c2ccccc2)CC1,IC50,second compound 0.1 µM,< 0.949 nM
same,IC50,second compound 0.316 µM,< 0.949 nM
same,IC50,second compound 1 µM,< 0.949 nM
same,IC50,second compound 3.16 µM,< 0.949 nM
same,IC50,second compound 10 µM,< 0.949 nM
same,"viability, T/C","second compound 0.1 µM, first compound 0.000949 µM",25.8%
same,"viability, T/C","second compound 0.1 µM, first compound 0.003 µM",17.1%
same,"viability, T/C",[1],16.5%
same,"viability, T/C",[2],15.9%
same,"viability, T/C",[3],15.9%
same,"viability, T/C",[4],15.1%
same,"viability, T/C","second compound 0.316 µM, first compound 0.000949 µM",22.9%
same,"viability, T/C","second compound 0.316 µM, first compound 0.003 µM",18.7%
same,"viability, T/C",[5],16.2%
same,"viability, T/C",[6],15.6%
same,"viability, T/C",[7],16.1%
same,"viability, T/C",[8],15.6%
same,"viability, T/C","second compound 1 µM, first compound 0.000949 µM",26%
same,"viability, T/C","second compound 1 µM, first compound 0.003 µM",18.6%
same,"viability, T/C",[9],18.1%
same,"viability, T/C",[10],18%
same,"viability, T/C",[11],16.8%
same,"viability, T/C",[12],16.3%
same,"viability, T/C","second compound 3.16 µM, first compound 0.000949 µM",27.2%
same,"viability, T/C","second compound 3.16 µM, first compound 0.003 µM",20.5%
same,"viability, T/C",[13],20.1%
same,"viability, T/C",[14],19.6%
same,"viability, T/C",[15],19.2%
same,"viability, T/C",[16],15.9%
same,"viability, T/C","second compound 10 µM, first compound 0.000949 µM",31.3%
same,"viability, T/C","second compound 10 µM, first compound 0.003 µM",25.1%
same,"viability, T/C",[17],25.3%
same,"viability, T/C",[18],18.5%
same,"viability, T/C",[19],23.3%
same,"viability, T/C",[20],20.9%
O=C(c1cc(Cc2n[nH]c(=O)c3ccccc23)ccc1F)N1CCN(C(=O)C2CC2)CC1 + NC1CCC(NC2CC2c2ccccc2)CC1,IC50,second compound 0.1 µM,> 10000 nM
same,IC50,second compound 0.316 µM,> 10000 nM
same,IC50,second compound 1 µM,> 10000 nM
same,IC50,second compound 3.16 µM,> 10000 nM
same,IC50,second compound 10 µM,> 10000 nM
same,"viability, T/C","second compound 0.1 µM, first compound 0.0316 µM",121%
same,"viability, T/C","second compound 0.1 µM, first compound 0.1 µM",121%
same,"viability, T/C","second compound 0.1 µM, first compound 0.316 µM",117%
same,"viability, T/C","second compound 0.1 µM, first compound 1 µM",123%
same,"viability, T/C","second compound 0.1 µM, first compound 3.16 µM",121%
same,"viability, T/C","second compound 0.1 µM, first compound 10 µM",94%
same,"viability, T/C","second compound 0.316 µM, first compound 0.0316 µM",119%
same,"viability, T/C","second compound 0.316 µM, first compound 0.1 µM",114%
same,"viability, T/C","second compound 0.316 µM, first compound 0.316 µM",117%
same,"viability, T/C","second compound 0.316 µM, first compound 1 µM",113%
same,"viability, T/C","second compound 0.316 µM, first compound 3.16 µM",127%
same,"viability, T/C","second compound 0.316 µM, first compound 10 µM",84.1%
same,"viability, T/C","second compound 1 µM, first compound 0.0316 µM",111%
same,"viability, T/C","second compound 1 µM, first compound 0.1 µM",112%
same,"viability, T/C","second compound 1 µM, first compound 0.316 µM",122%
same,"viability, T/C","second compound 1 µM, first compound 1 µM",123%
same,"viability, T/C","second compound 1 µM, first compound 3.16 µM",121%
same,"viability, T/C","second compound 1 µM, first compound 10 µM",79.1%
same,"viability, T/C","second compound 3.16 µM, first compound 0.0316 µM",120%
same,"viability, T/C","second compound 3.16 µM, first compound 0.1 µM",120%
same,"viability, T/C","second compound 3.16 µM, first compound 0.316 µM",119%
same,"viability, T/C","second compound 3.16 µM, first compound 1 µM",132%
same,"viability, T/C","second compound 3.16 µM, first compound 3.16 µM",124%
same,"viability, T/C","second compound 3.16 µM, first compound 10 µM",80.5%
same,"viability, T/C","second compound 10 µM, first compound 0.0316 µM",111%
same,"viability, T/C","second compound 10 µM, first compound 0.1 µM",109%
same,"viability, T/C","second compound 10 µM, first compound 0.316 µM",114%
same,"viability, T/C","second compound 10 µM, first compound 1 µM",134%
same,"viability, T/C","second compound 10 µM, first compound 3.16 µM",109%
same,"viability, T/C","second compound 10 µM, first compound 10 µM",69.9%
